Values quoted from earlier work as cited in patent US20210236523A1, “P[…] FOR HEADACHE DISORDERS” (priority 2020, published 2021).
Entries after “also recorded” stand apart in the source; their conditions may differ.

Assays:
5-HT2B = 5-HT2B (Homo sapiens, UniProt P41595); conditions: cited from earlier work
5-HT2A = 5-HT2A (Homo sapiens, UniProt P28223); conditions: cited from earlier work
5-HT1 = conditions: cited from earlier work
dopamine receptor = conditions: cited from earlier work
cluster headache = conditions: et al., cited from earlier work

Chain of 5-HT2A (P28223 whole entry): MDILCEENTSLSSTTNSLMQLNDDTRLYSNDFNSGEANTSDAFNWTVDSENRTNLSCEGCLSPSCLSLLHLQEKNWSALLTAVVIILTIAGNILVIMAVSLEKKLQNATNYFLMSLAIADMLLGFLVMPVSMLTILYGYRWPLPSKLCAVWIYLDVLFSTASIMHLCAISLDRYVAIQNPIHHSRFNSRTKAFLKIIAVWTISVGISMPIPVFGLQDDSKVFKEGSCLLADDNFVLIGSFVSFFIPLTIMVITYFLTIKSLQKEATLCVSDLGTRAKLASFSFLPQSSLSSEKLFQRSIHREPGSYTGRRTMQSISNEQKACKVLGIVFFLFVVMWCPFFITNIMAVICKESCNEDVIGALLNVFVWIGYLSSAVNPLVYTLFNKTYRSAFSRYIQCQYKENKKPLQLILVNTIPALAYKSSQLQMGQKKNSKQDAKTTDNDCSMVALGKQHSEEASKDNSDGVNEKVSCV
Chain of 5-HT2B (P41595 whole entry, species assumed): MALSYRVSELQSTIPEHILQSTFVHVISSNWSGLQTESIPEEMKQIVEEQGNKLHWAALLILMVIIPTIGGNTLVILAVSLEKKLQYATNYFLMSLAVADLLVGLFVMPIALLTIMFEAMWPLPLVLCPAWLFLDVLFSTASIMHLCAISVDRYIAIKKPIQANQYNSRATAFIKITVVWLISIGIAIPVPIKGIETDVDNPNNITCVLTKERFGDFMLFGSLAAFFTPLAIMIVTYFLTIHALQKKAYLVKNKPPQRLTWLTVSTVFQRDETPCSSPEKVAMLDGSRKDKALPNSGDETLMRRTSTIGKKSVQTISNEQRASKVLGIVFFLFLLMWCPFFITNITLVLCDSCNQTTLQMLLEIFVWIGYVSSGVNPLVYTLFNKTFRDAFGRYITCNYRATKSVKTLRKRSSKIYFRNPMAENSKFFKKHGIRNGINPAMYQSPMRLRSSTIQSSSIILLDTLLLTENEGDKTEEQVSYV

CN(C)CCc1c[nH]c2cccc(O)c12 [psilocin]
affinity for 5-HT2B (5-HT2B): high affinity | affinity for 5-HT2A (5-HT2A): high affinity; also recorded: modest affinity | affinity for 5-HT1 (5-HT1): low affinity | effect on the dopamine receptor (dopamine receptor): no effect

CCN(CC)C(=O)[C@@H]1C=C2c3cccc4[nH]cc(c34)C[C@H]2N(C)C1 [LSD, lysergic acid diethylamide]
reported effects in cluster headache (cluster headache; Sewell, 2006, Schindler et al., 2015): stop acute cluster attacks, terminate cluster cycles, and induce and prolong remission from cluster headache

CCN(CC)C(=O)[C@@H]1C=C2c3cccc4[nH]c(Br)c(c34)C[C@H]2N(C)C1 [BOL-148, 2-bromo-lysergic acid diethylamide]
effect on cluster headache cycle and attacks (cluster headache; three single oral doses of 30 μg/kg, Karst, 2010): either break a cluster headache cycle or considerably improve the frequency and intensity of attacks
